What was measured:
[1] = regional cerebral blood flow by Laser-Doppler flowmetry, PD98059; assay type: in vivo, mouse; settings: 200 μM PD98059, n = 5, % of baseline, means ±SD
Text: Data are presented as means ±SD. Therefore, the decrease in ERK1/2 phosphorylation seen with PD98059 was not due to higher blood flow.

[2] = mean arterial blood pressure, PD98059; assay type: in vivo, mouse
Protocol: Mean arterial blood pressure (MABP) was determined in the presence or absence of 200 μM PD98059 10 minutes before and 1 hour after induction of ischemia, and 30 minutes after reperfusion under 1% halothane anesthesia (Table 2). Data are presented as means±SD. MABP was determined to be unaltered.

ERK1/2 [3] = assay: immunohistochemistry of phosphorylated ERK1/2 in brain slices after ischemia and reperfusion (PD98059 i.c.v.); assay type: in vivo, mouse (SV-129); settings: 2 μl of 200 μM i.c.v. 30 min before ischemia; 120 min ischemia, 3 min reperfusion
[4] = arterial blood pH, pCO2 and pO2, PD98059; assay type: in vivo, mouse
Protocol: Partial oxygen tension (pO2), partial carbon dioxide tension (pCO2), and blood pH were determined in the presence or absence of 200 μM PD98059, 1 hour after the induction of ischemia under 1% halothane anesthesia (Table 3).

MEK1 = settings: Favata et al., 1998, DeSilva et al.; cited from earlier work
[5] = mouse, in vivo
[6] = tested on: neurological deficits caused by ischemia; assay: neurological grading after 2 hours of MCA occlusion and reperfusion; assay type: in vivo, mouse (SV-129); settings: three days after 2 hours MCA occlusion and reperfusion; mean±SEM; vehicle 2.2±0.3; P<0.05
Protocol: Data are presented as mean ±SEM Data were analyzed by Student-t test or one-way ANOVA followed by Bonferroni's post hoc test.

p38 MAP kinase = settings: Cohen, Trends Cell Biol. 7:353, 1997; cited from earlier work
SAPKs/JNKs = settings: Cohen, Trends Cell Biol. 7:353, 1997; cited from earlier work
ERK1/2 [7] = settings: 5 mM glutamate
[8] = compared with native tPA; cited from earlier work

COc1cccc(-c2cc(=O)c3ccccc3o2)c1N [PD98059, 2-(2-amino-3-methoxyphenyl)-4-oxo-4H-[1]benzopyran]
RCBF (after MCA) ([1]; 30 min reperfusion, DMSO 102.5% ± 6.8): 94.9% ± 8.9 | RCBF (during MCA) ([1]; DMSO 25.2% ± 5.7): 15.9% ± 1.7 | MABP (before) ([2]; 200 μM PD98059, n = 5, 10 minutes before ischemia, means±SD, DMSO 80.7 ± 7.5, in mmHg (unit assumed)): 86.4 ± 10.9 | MABP (after) ([2]; 200 μM PD98059, n = 5, 30 minutes after reperfusion, means±SD, DMSO 82.8 ± 13.5): 86.0 ± 12.3 | MABP (during) ([2]; 200 μM PD98059, n = 5, 1 hour after induction of ischemia, means±SD, DMSO 82.3 ± 2.1, in mmHg (unit assumed)): 81.8 ± 4.1 | MABP, in words ([2]; 200 μM PD98059 vs DMSO): unaltered | phosphorylation of ERK1/2 in the middle cerebral artery territory (ERK1/2 [3]): reduced | blood pH ([4]; 200 μM PD98059, n = 5, 1 hour after induction of ischemia, means ±SD, DMSO 7.32 ± 0.06): 7.32 ± 0.07 | PCO2 ([4]; 200 μM PD98059, n = 5, 1 hour after induction of ischemia, means ±SD, DMSO 48.8 ± 5.1, in mmHg (unit assumed)): 49.9 ± 3.5 | PO2 ([4]; 200 μM PD98059, n = 5, 1 hour after induction of ischemia, means ±SD, DMSO 155.3 ± 13.8, in mmHg (unit assumed)): 139.1 ± 21.6 | pO2, pCO2, and blood pH, in words ([4]; 200 μM PD98059 vs DMSO): did not differ between the two groups | cell injury (HT22 cells; PD98059 50 μM, 9 hours after 5 mM glutamate): partially attenuated cell injury | protective effects (HT22 cells; PD98059 50 μM, 24 hours after 5 mM glutamate): did not sustain for 24 hours | inhibition of active / inactive MEK1, in words (MEK1): cannot efficiently inhibit MEK1 once it is activated | body temperature [5]: 34.6±0.8 °C | temporal muscle temperature [5]: 35.5±0.1 °C | neurological grading [6]: 0.71±0.29

C[S+]([O-])c1ccc(-c2nc(-c3ccncc3)c(-c3ccc(F)cc3)[nH]2)cc1 (centres unmarked) [SB203580]
inhibitor of p38 MAP kinase (concentration) (p38 MAP kinase): 1 to 2 µM | inhibitor of SAPKs/JNKs (concentration) (SAPKs/JNKs): > 10 µM

N[C@@H](CCC(=O)O)C(=O)O [glutamate]
completion of cell injury after addition of glutamate (HT22 cells; 5 mM glutamate (FIG. 5A)): up to 10 hours | onset of cell injury after addition of glutamate (HT22 cells; 5 mM glutamate (FIG. 5A)): 8 h | time of further increase of ERK1/2 phosphorylation after glutamate addition (ERK1/2 [7]): 7 to 8 h

conjugation of tPA to polyethylene glycol: conjugation of tPA to polyethylene glycol
clearance rate, in words [8]: reduce the clearance rate of tPA

Reference: patent publication US6319955A, “Use of MEK1 inhibitors as protective agents against damage due to ischemia” (priority 2000, dated 2001)
